Experimental data reported in patent publication US12696901B2, “Pesticidally active heterocyclic derivatives with sulfur containing substituents” (SYNGENTA CROP PROTECTION AG, priority 2020, dated 2026).

How the values were obtained:
Assay type in all cases: in vivo
[1] = test system: Diabrotica balteata (Corn Root Worm); experiment: Activity against Diabrotica balteata (corn root worm), sprayed maize sprouts on agar; settings: 96 h, application rate 200 ppm, L2 larvae, 4 days after infestation, read-out: effect in at least one of the two categories (mortality or growth inhibition)
Method: Example B2: Activity Against Diabrotica balteata (Corn Root Worm)
Maize sprouts placed onto an agar layer in 24-well microtiter plates were treated with aqueous test solutions prepared from 10,000 ppm DMSO stock solutions by spraying. After drying, the plates were infested with L2 larvae (6 to 10 per well). The samples were assessed for mortality and growth inhibition in comparison to untreated samples 4 days after infestation.

[2] = test system: Plutella xylostella (Diamond Back Moth); experiment: Activity against Plutella xylostella (diamond back moth), treated artificial diet; settings: 192 h, application rate 200 ppm, eggs, 8 days after infestation, read-out: effect in at least one of the two categories (mortality or growth inhibition)
Method: Example B5: Activity Against Plutella xylostella (Diamond Back Moth)
24-well microtiter plates with artificial diet were treated with aqueous test solutions prepared from 10,000 ppm DMSO stock solutions by pipetting. After drying, Plutella eggs were pipetted through a plastic stencil onto a gel blotting paper and the plate was closed with it. The samples were assessed for mortality and growth inhibition in comparison to untreated samples 8 days after infestation.

[3] = test system: Myzus persicae (Green Peach Aphid); experiment: Activity against Myzus persicae (green peach aphid), feeding/contact activity; settings: 144 h, application rate 200 ppm, mixed ages, 6 days after infestation
Method: Example B6: Activity Against Myzus persicae (Green Peach Aphid) Feeding/Contact Activity
Sunflower leaf discs were placed onto agar in a 24-well microtiter plate and sprayed with aqueous test solutions prepared from 10,000 ppm DMSO stock solutions. After drying, the leaf discs were infested with an aphid population of mixed ages. The samples were assessed for mortality 6 days after infestation.

[4] = test system: Spodoptera littoralis (Egyptian Cotton Leaf Worm); experiment: Activity against Spodoptera littoralis (Egyptian cotton leaf worm), sprayed cotton leaf discs; settings: foliar, 72 h, application rate 200 ppm, L1 larvae, 3 days after infestation
Method: Example B7: Activity Against Spodoptera littoralis (Egyptian Cotton Leaf Worm)
Cotton leaf discs were placed onto agar in 24-well microtiter plates and sprayed with aqueous test solutions prepared from 10,000 ppm DMSO stock solutions. After drying the leaf discs were infested with five L1 larvae. The samples were assessed for mortality, anti-feeding effect, and growth inhibition in comparison to untreated samples 3 days after infestation. Control of Spodoptera littoralis by a test sample is given when at least one of the categories mortality, anti-feedant effect, and growth inhibition is higher than the untreated sample.

[5] = test system: Carpocapsa (Cydia) Pomonella (Codling Moth); experiment: Activity against Carpocapsa (Cydia) pomonella (codling moth), sprayed diet cubes; settings: 336 h, application rate 12.5 ppm, L1 larvae, 14 days after infestation, read-out: effect in at least one of the two categories (mortality or growth inhibition)
Method: Example B11: Activity Against Carpocapsa (Cydia) Pomonella (Codling Moth)
Diet cubes coated with paraffin were sprayed with diluted test solutions in an application chamber. After drying off the treated cubes (10 replicates) were infested with 1 L1 larvae. Samples were incubated at 26-27° C. and checked 14 days after infestation for mortality and growth inhibition. The following compounds gave an effect of at least 80% in at least one of the two categories (mortality or growth inhibition) at an application rate of 12.5 ppm: P1, P2, P3, P4, P5, P6, P10, P11, P12, P14, P15, P16, P17, P19, P20, P21, P22, P24, P27, P29, P30, P33, P34, P35.

[6] = test system: Diabrotica balteata (Corn Root Worm); experiment: Activity against Diabrotica balteata (corn root worm), corn seedlings on filter paper in cups; settings: 120 h, application rate 3 ppm, L2 larva, 5 days after treatment, read-out: effect in at least one of the two categories (mortality or growth inhibition)
Method: Example B12: Activity Against Diabrotica Balteata (Corn Root Worm)
Three corn seedlings were placed on wetted filter paper in plastic cups, and 3 ml of diluted test solutions were pipetted onto them. The cups were infested with 10 L2 larva and checked for mortality and growth regulation 5 days after treatment.

[7] = test system: Chilo suppressalis (Striped Rice Stemborer); experiment: Activity against Chilo suppressalis (striped rice stemborer), treated artificial diet; settings: 144 h, application rate 200 ppm, L2 larvae, 6 days after infestation
Method: Example B10: Activity Against Chilo suppressalis (Striped Rice Stemborer)
24-well microtiter plates with artificial diet were treated with aqueous test solutions prepared from 10,000 ppm DMSO stock solutions by pipetting. After drying, the plates were infested with L2 larvae (6-8 per well). The samples were assessed for mortality, anti-feeding effect, and growth inhibition in comparison to untreated samples 6 days after infestation. Control of Chilo suppressalis by a test sample is given when at least one of the categories mortality, anti-feedant effect, and growth inhibition is higher than the untreated sample.

CCS(=O)(=O)c1c(N2Cc3ncc(C(F)(F)F)cc3C2=O)nc2cc(C(F)(F)F)ccn12 [Compound P2, 6-[3-ethylsulfonyl-7-(trifluoromethyl)imidazo[1,2-a]pyridin-2-yl]-3-(trifluoromethyl)-7H-pyrrolo[3,4-b]pyridin-5-one]
≥ 80%: percent effect (mortality or growth inhibition) at 200 ppm [1] | percent effect (mortality or growth inhibition) at 200 ppm [2] | mortality at 200 ppm [3] | percent control (mortality, anti-feedant effect or growth inhibition) at 200 ppm [4] | percent effect (mortality or growth inhibition) at 12.5 ppm [5] | percent effect (mortality or growth inhibition) at 3 ppm [6]

CCS(=O)(=O)c1c(N2Cc3ncc(C(F)(F)F)cc3C2=O)nc2ccc(OC(C)C)cn12 [Compound P9, 6-(3-ethylsulfonyl-6-isopropoxy-imidazo [1,2-a]pyridin-2-yl)-3-(trifluoromethyl)-7H-pyrrolo[3,4-b] pyridin-5-one]
≥ 80%: percent control (mortality, anti-feedant effect or growth inhibition) at 200 ppm [4]

CCS(=O)(=O)c1c(N2Cc3ncc(C(F)(F)F)cc3C2=O)nc2ccc(C(C)(F)F)cn12 [Compound P18, 6-[6-(1,1-difluoroethyl)-3-ethylsulfonyl-imidazo [1,2-a]pyridin-2-yl]-3-(trifluoromethyl)-7H-pyrrolo[3,4-b]pyridin-5-one]
≥ 80%: percent effect (mortality or growth inhibition) at 3 ppm [6]

CCS(=O)(=O)c1c(N2Cc3ccc(OC(F)(F)F)cc3C2=O)nc2cc(OCC(F)(F)F)ccn12 [Compound P28, 2-[3-ethylsulfonyl-7-(2,2,2-trifluoroethoxy)imidazo[1,2-a]pyridin-2-yl]-6-(trifluoromethoxy) isoindolin-1-one]
≥ 80%: percent effect (mortality or growth inhibition) at 3 ppm [6]

CCS(=O)(=O)c1c(N2Cc3ccc(S(=O)(=O)C(F)(F)F)cc3C2=O)nc2ccc(Br)cn12 [Compound P30, 2-(6-bromo-3-ethylsulfonyl-imidazo[1,2-a]pyridin-2-yl)-6-(trifluoromethyl-sulfonyl) isoindolin-1-one]
≥ 80%: percent effect (mortality or growth inhibition) at 200 ppm [1] | percent effect (mortality or growth inhibition) at 200 ppm [2] | percent control (mortality, anti-feedant effect or growth inhibition) at 200 ppm [4] | percent control (mortality, anti-feedant effect or growth inhibition) at 200 ppm [7] | percent effect (mortality or growth inhibition) at 12.5 ppm [5] | percent effect (mortality or growth inhibition) at 3 ppm [6]

CCS(=O)(=O)c1c(N2Cc3ncc(C(F)(F)F)cc3C2=O)nc2ccc(OCC3(C#N)CC3)cn12 [Compound P31, 1-[[3-ethylsulfonyl-2-[5-oxo-3-(trifluoromethyl)-7H-pyrrolo[3,4-b]pyridin-6-yl]imidazo [1,2-a]pyridin-6-yl]oxymethyl] cyclopropane-carbonitrile]
≥ 80%: percent effect (mortality or growth inhibition) at 200 ppm [1] | percent effect (mortality or growth inhibition) at 200 ppm [2] | percent control (mortality, anti-feedant effect or growth inhibition) at 200 ppm [4] | percent control (mortality, anti-feedant effect or growth inhibition) at 200 ppm [7]

CCS(=O)(=O)c1c(N2Cc3ccc(S(=O)(=O)C(F)(F)F)cc3C2=O)nc2ccc(C(F)(F)F)cn12 [Compound P32, 2-[3-ethylsulfonyl-6-(trifluoromethyl)imidazo[1,2-a]pyridin-2-yl]-6-(trifluoromethyl-sulfonyl) isoindolin-1-one]
≥ 80%: percent effect (mortality or growth inhibition) at 200 ppm [1] | percent effect (mortality or growth inhibition) at 200 ppm [2] | percent control (mortality, anti-feedant effect or growth inhibition) at 200 ppm [4] | percent control (mortality, anti-feedant effect or growth inhibition) at 200 ppm [7] | percent effect (mortality or growth inhibition) at 3 ppm [6]
